The term Ki denotes a dissociation constant, usually derived from enzyme kinetics or from competition with a known ligand.

Nine compounds from patent publication US20230293517A1, “ANTAGONIST COMPOUNDS” (AdoRx Therapeutics Limited, priority 2020, published 2023) can be followed below.

In assay [1] the target is human Adenosine A1 receptor (Homo sapiens (Human), UniProt P30542). Briefly: Adenosine receptor TR-FRET binding assay (A1). To be noted: inhibition of binding of 100 nM CA200645, CHO cell membranes. In outline: (§1)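 CHO cell membranes carrying terbium-tagged human A1, A2a, A2b or A3 receptors were incubated 2 h at room temperature with compound and CA200645 tracer (A2b 30 nM; others 100 nM). Specific binding from time-resolved FRET ratios, minus 10 μM XAC background; IC50 converted to Ki (Cheng–Prusoff).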

In assay [2] the target is human Adenosine A2a receptor (Homo sapiens (Human), UniProt P29274). Description: Adenosine receptor TR-FRET binding assay (A2a). To be noted: inhibition of binding of 100 nM CA200645, CHO cell membranes. Summed up:
as §1
Background: In TR-FRET formats the signal depends on donor and acceptor labels being close together.

The target of assay [3] is human Adenosine A2b receptor (Homo sapiens (Human), UniProt P29275). Briefly: Adenosine receptor TR-FRET binding assay (A2b). To be noted: TR-FRET, inhibition of binding of 30 nM CA200645, CHO cell membranes. In outline:
as §1

The target of assay [4] is human Adenosine A3 receptor (Homo sapiens (Human), UniProt P0DMS8). Briefly: Adenosine receptor TR-FRET binding assay (A3). To be noted: inhibition of binding of 100 nM CA200645, CHO cell membranes. The procedure:
Biological Example 1—Adenosine Receptor Time-Resolved Fluorescence Resonance Energy Transfer (TRFRET) Binding Assay
All FRET binding experiments were conducted at room temperature in white 384-well plates, in assay binding buffer containing 1×LabMed (Cisbio, France), 100 μg/mL saponin, 1% DMSO and 0.02% pluronic acid. Binding of the fluorescently labelled Adenosine receptor antagonist XAC (CA200645, FRET acceptor) to terbium-labelled A1, A2a, A2b and A3 adenosine receptors (FRET donors) was detected by time-resolved FRET due to the close proximity of the donor and acceptor in a binding event. To investigate the ability of unlabelled test compounds to bind to Adenosine A1, A2a, A2b and A3 receptors, dose response curves were constructed that determined the ability of a range of concentrations to inhibit the binding of 30 nM CA200645 to the A2b receptor and 100 nM CA200645 to the A1, A2a, and A3 receptor.
Serial dilution (1:3 dilutions) of test compounds in neat DMSO and transfer of a 400 nL sample of test compound into the assay plate was carried out using the Mosquito (TTP Labtech, UK). The compound samples were incubated for 2 hours at room temperature with a fixed concentration of CA200645 defined for each receptor (see above) and CHO cell membranes containing the human Adenosine A1 (0.5 μg/well), A2a (0.3 μg/well), A2b (1 μg/well) or A3 (1 μg/well) receptor in 40 μL of assay buffer. Total and non-specific binding of CA200645 was determined in the absence and presence of 10 μM XAC, respectively. Following 2 hours incubation, the level of CA200645 binding was detected on a Pherastar FSX (BMG Labtech, Germany) using standard TR-FRET settings. The terbium donor was excited with three laser flashes at a wavelength of 337 nm, and donor and acceptor emission was detected at 620 nm and 665 nm wavelengths, respectively. FRET ratios were obtained by multiplying the acceptor/donor ratio value by 10,000. Specific binding was determined by subtracting the non-specific binding FRET ratio from the total binding FRET ratio. Compound IC50 curves were analysed using GraphPad Prism 7.0 (GraphPad, USA) and Ki affinity values were determined from the obtained IC50 values using the method of Cheng and Prusoff.

human Adenosine A2a receptor, sequence (P29274 whole entry): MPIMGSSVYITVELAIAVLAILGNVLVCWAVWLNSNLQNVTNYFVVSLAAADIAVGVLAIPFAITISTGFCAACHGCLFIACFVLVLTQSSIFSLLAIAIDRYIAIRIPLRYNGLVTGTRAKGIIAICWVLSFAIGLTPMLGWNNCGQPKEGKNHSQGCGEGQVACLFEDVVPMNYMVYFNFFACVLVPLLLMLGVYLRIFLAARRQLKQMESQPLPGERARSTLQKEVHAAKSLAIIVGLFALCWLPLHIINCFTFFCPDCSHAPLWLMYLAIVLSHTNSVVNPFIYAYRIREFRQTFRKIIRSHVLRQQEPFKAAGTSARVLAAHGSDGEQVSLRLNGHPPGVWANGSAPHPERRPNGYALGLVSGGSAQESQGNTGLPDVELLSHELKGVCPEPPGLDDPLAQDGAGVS
human Adenosine A2b receptor, sequence (P29275 whole entry): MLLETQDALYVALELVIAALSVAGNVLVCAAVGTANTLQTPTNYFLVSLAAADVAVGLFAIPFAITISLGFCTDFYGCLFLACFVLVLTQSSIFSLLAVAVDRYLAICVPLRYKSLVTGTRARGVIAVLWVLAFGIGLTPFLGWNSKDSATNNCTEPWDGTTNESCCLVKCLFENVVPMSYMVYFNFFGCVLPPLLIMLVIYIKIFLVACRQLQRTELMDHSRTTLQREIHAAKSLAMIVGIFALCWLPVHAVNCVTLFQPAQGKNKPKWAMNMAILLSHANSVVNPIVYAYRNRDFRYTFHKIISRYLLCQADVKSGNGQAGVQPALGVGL
human Adenosine A1 receptor, sequence (P30542 whole entry): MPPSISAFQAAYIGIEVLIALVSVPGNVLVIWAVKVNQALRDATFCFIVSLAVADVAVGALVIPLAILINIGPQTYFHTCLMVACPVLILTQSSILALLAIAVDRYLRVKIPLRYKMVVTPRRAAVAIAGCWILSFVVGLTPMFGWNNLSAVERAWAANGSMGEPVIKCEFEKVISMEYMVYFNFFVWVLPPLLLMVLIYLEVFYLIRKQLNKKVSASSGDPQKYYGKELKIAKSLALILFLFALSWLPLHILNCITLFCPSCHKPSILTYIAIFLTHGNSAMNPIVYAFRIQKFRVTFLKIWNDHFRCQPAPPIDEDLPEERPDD
human Adenosine A3 receptor, sequence (P0DMS8 whole entry): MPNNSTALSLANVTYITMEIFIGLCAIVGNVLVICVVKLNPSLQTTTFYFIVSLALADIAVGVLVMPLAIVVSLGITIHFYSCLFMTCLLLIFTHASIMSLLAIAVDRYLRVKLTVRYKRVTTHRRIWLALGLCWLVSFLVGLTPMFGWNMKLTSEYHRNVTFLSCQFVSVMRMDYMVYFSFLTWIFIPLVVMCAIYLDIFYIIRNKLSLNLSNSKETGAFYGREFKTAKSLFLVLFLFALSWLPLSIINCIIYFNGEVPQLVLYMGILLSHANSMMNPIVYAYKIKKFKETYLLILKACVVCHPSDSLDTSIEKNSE

With `Cc1cc(-c2sc(NC(=O)N3CC[C@H](C(N)=O)C3)nc2-c2cccc(C#N)c2)cc(C)n1` [Example 6.3, (3S)-N1-[4-(3-Cyanophenyl)-5-(2,6-dimethyl-4-pyridyl)thiazol-2-yl]pyrrolidine-1,3-dicarboxamide], the Ki amounted to 32 nM in assay [1], 0.87 nM in assay [2], 1.5 nM in assay [3] and 125 nM in assay [4].

In the case of `Cc1cc(-c2sc(NC(=O)N3CCN4C(=O)CNC(=O)C4C3)nc2-c2cccc(C#N)c2)cc(C)n1` (stereo not drawn) [Example 6.35, N-[4-(3-Cyanophenyl)-5-(2,6-dimethyl-4-pyridyl)thiazol-2-yl]-6,9-dioxo-1,3,4,7,8,9a-hexahydropyrazino[1,2-a]pyrazine-2-carboxamide], the Ki in assay [1] stood at 243 nM; in assay [2], 9.58 nM; in assay [3] it was 20.9 nM; in assay [4], 303 nM.

Consider `Cc1cc(-c2sc(NC(=O)N3CCC(c4ncno4)CC3)nc2-c2cccc(C#N)c2)cc(C)n1` [Example 6.31, N-[4-(3-Cyanophenyl)-5-(2,6-dimethyl-4-pyridyl)thiazol-2-yl]-4-(1,2,4-oxadiazol-5-yl)piperidine-1-carboxamide], for which the Ki in assay [1] amounted to 19 nM; in assay [2], 1.5 nM; in assay [3], 2.1 nM; in assay [4], 186 nM.

On to `Cc1cc(-c2sc(NC(=O)N3CCC[C@@H]3C(C)(C)O)nc2-c2cccc(C#N)c2)cc(Cl)n1` [Example 3, (2R)—N-[5-(2-Chloro-6-methyl-4-pyridyl)-4-(3-cyanophenyl)thiazol-2-yl]-2-(1-hydroxy-1-methyl-ethyl)pyrrolidine-1-carboxamide], for which the inhibition constant Ki turned out to be 1000 nM in assay [1], 58.2 nM in assay [2], 50.6 nM in assay [3] and 1980 nM in assay [4].

As for `Cc1cc(-c2sc(NC(=O)N3CCN[C@@H](CO)C3)nc2-c2cccc(C#N)c2)cc(Cl)n1` [Example 5.3, (3R)-N-[5-(2-Chloro-6-methyl-4-pyridyl)-4-(3-cyanophenyl)thiazol-2-yl]-3-(hydroxymethyl)piperazine-1-carboxamide], the inhibition constant Ki in assay [1] worked out at 90 nM; in assay [2], 2.31 nM; in assay [3], 2.1 nM; in assay [4] it was 98 nM.

For the compound `Cc1cc(-c2sc(NC(=O)N3CC[C@H](C(=O)O)C3)nc2-c2cccc(C#N)c2)cc(C)n1` [Example 6.63, (3S)-1-[[4-(3-Cyanophenyl)-5-(2,6-dimethyl-4-pyridyl)thiazol-2-yl]carbamoyl]pyrrolidine-3-carboxylic acid], the inhibition constant (Ki) in assay [1] turned out to be 343 nM; in assay [2] it was 34.3 nM; in assay [3] it was 29.2 nM; in assay [4], 200 nM.

Turning to `Cc1cc(-c2sc(NC(=O)N3CC[C@H]3C)nc2-c2cccc(C#N)c2)cc(C)n1` [Example 6.78, (2R)-N-[4-(3-Cyanophenyl)-5-(2,6-dimethyl-4-pyridyl)thiazol-2-yl]-2-methyl-azetidine-1-carboxamide], the Ki in assay [1] was found to be 24 nM; in assay [2], 0.67 nM; in assay [3], 0.9 nM; in assay [4], 37 nM.

Turning to `Cc1cc(-c2sc(NC(=O)N3CC(C(=O)O)C3)nc2-c2cccc(C#N)c2)cc(C)n1` [Example 6.70, 1-[[4-(3-Cyanophenyl)-5-(2,6-dimethyl-4-pyridyl)thiazol-2-yl]carbamoyl]azetidine-3-carboxylic acid], the Ki turned out to be 163 nM in assay [1], 9.59 nM in assay [2], 13.1 nM in assay [3] and 192 nM in assay [4].

`Cc1cc(-c2sc(NC(=O)N3CCC4(CN(C)CCO4)C3)nc2-c2cccc(C#N)c2)cc(C(F)F)n1` (stereo not drawn) [Example 6.107, N-[4-(3-Cyanophenyl)-5-[2-(difluoromethyl)-6-methyl-4-pyridyl]thiazol-2-yl]-9-methyl-6-oxa-2,9-diazaspiro[4.5]decane-2-carboxamide]: the Ki in assay [1] is 69 nM; in assay [2], 1.37 nM; in assay [3] it was 2.3 nM; in assay [4] it was 156 nM.
